Source: ChEMBL document CHEMBL2177061, “Factors influencing the specificity of inhibitor binding to the human and malaria parasite dihydroorotate dehydrogenases” (J Med Chem, 2012)
Positions count from the first letter of the chain named.

Assays:
[1] = tested on: T1, Dihydroorotate dehydrogenase (quinone), mitochondrial (Plasmodium falciparum (isolate 3D7)), Q08210 [F188Y]; assay: Inhibition of Plasmodium falciparum […] dehydrogenase F188Y mutant expressed in Escherichia coli BL21(DE3) using […] as substrate at 100 uM by DCIP-based colorimetric analysis
T1 sequence (whole entry): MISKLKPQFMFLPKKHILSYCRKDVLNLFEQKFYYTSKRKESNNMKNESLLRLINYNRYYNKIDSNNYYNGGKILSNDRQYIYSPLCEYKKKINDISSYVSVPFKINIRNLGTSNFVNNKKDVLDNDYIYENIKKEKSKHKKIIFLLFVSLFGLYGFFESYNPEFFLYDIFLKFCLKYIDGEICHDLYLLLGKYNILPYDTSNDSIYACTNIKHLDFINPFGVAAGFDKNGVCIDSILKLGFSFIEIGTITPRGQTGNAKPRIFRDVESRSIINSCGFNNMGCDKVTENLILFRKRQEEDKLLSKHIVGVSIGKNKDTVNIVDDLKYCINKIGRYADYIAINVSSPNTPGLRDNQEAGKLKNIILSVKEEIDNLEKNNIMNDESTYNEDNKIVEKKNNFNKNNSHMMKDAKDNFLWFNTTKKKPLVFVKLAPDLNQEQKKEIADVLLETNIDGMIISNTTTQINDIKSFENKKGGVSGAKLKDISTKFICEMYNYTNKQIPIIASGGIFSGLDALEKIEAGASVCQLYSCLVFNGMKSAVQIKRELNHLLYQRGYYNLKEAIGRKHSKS

[2] = tested on: T2, Dihydroorotate dehydrogenase (quinone), mitochondrial (Plasmodium falciparum (isolate 3D7)), Q08210 [C276A]; assay: Inhibition of Plasmodium falciparum […] dehydrogenase C276A mutant expressed in Escherichia coli BL21(DE3) using […] as substrate at 100 uM by DCIP-based colorimetric analysis
T2 sequence (whole entry): T1 sequence (whole entry) with Y188F, C276A

[3] = organism: Homo sapiens; assay: Ratio of IC50 for human […] dehydrogenase H56A mutant to IC50 for human wild type […] dehydrogenase
[4] = target: Dihydroorotate dehydrogenase (quinone), mitochondrial (Homo sapiens, UniProt Q02127); assay: Inhibition of human […] dehydrogenase expressed in Escherichia coli BL21(DE3) using […] as substrate by DCIP-based colorimetric analysis
Chain of Dihydroorotate dehydrogenase (quinone), mitochondrial (Q02127 whole entry): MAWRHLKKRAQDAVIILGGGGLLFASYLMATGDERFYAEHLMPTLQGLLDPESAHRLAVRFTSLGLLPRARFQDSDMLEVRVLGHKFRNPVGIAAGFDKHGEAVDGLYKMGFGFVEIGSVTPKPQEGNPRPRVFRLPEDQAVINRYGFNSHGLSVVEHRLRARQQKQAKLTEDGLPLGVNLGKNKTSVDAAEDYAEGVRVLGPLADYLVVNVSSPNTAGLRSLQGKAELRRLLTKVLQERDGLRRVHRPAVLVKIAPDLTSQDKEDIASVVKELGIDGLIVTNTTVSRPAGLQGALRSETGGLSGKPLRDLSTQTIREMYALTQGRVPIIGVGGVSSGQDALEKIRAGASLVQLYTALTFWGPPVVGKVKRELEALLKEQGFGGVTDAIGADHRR

Compound: CCc1cc(O)n2nc(SCc3cc(Cl)ccc3Cl)nc2n1
- inhibition [1]: < 50%
- inhibition [2]: < 50%
- Ratio IC50 [3]: 17
- IC50 [4]: 13 nM
